For assay [1], the target named is T1, CCR2 (Homo sapiens, UniProt P41597).
T1 construct: host or cells: HEK293T, transient
T1 sequence (P41597 1-360 isoform P41597-2): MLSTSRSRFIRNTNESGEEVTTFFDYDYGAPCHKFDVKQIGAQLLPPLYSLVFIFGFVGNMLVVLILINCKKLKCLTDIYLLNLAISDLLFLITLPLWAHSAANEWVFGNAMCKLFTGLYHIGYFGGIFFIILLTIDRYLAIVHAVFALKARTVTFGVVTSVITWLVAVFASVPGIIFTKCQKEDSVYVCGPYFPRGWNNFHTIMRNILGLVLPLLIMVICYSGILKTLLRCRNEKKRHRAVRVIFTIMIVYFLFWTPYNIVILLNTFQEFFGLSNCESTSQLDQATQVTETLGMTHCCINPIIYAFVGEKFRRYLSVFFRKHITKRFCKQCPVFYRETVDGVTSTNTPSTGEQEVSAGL
Also noted: method as in PMID 30256641. As to conditions: cited from earlier work.

In assay [2] the target is T2, CCR1 (Homo sapiens, UniProt P32246).
T2 sequence (P32246 1-355): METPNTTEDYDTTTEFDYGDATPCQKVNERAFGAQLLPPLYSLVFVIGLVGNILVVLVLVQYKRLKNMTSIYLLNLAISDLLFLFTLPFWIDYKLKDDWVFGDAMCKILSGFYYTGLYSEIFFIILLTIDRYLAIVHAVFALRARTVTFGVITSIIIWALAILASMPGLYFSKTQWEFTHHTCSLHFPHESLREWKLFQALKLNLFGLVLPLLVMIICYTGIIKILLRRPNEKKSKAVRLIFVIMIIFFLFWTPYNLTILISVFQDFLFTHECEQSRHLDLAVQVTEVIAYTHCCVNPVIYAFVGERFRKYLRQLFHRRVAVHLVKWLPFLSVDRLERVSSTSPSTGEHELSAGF
Also noted: Promega pNLF1-C (Nluc) #CCR010TN00; host or cells: HEK293T, transient (PEI); method as in PMID 30256641. As to conditions: binding; cited from earlier work.

Assay [3] concerns the target T1, CCR2. The arrangement: method as in PMID 35838163. As to conditions: membrane-based setup; cited from earlier work.
Assay [4] has as its target T1, CCR2. Also noted: method as in PMID 35838163. Conditions: cellular setup; cited from earlier work.
Assay [5] has as its target T2, CCR1. The arrangement: Promega pNLF1-C (Nluc) #CCR010TN00; host or cells: HEK293T, transient (PEI); method as in PMID 35838163. Conditions: cited from earlier work.
In assay [6] the target is T1, CCR2. Nature of the assay: NanoBRET competition binding assay for CCR2 based on 7, as previously reported. As to conditions: compound at 100 μM; read-out: % inh. of tracer binding, CCR2. The source says:
With 6 (Figure 1), a first lead structure for intracellular CCR1 inhibition that features an approximately 20-fold CCR1 over CCR2 selectivity was previously discovered by Ortiz Zacarías et al.([33]) In order to discover new chemotypes for selective CCR1 over CCR2 inhibition, we aimed to apply our novel NanoBRET competition binding assay for CCR1 in combination with our recently published CCR2 competition binding assay based on 7.[47] In our first attempt, we screened a small in-house library enriched with intracellular GPCR ligands and structural analogues thereof. […] Additionally, we tested 23 for binding to the IABS of CCR9 and CXCR2 using our recently reported NanoBRET-based assay platform (Figure 6C).[44],[45] In the course of these studies, we detected no binding of 23 to CCR9 and CXCR2 up to a concentration of 20 μM. Since cell lineage-dependent effects have been observed for CCR1 antagonists,[59] we studied the CCR1 over CCR2 selectivity of 23 by using a previously reported radioligand binding assay with membrane preparations from osteosarcoma (U2OS) cells stably expressing human CCR1 or CCR2.[33] […] In agreement with these previous reports,[33] we observed a reduction in CCR1 over CCR2 selectivity when moving from membrane-based binding assays to cell-based functional assays. […] To investigate a potential signaling bias of 23, we tested the compound by means of a NanoBiT miniGi recruitment assay.[60] […] Thus, this indicated no strong signaling bias of 23 (Figures S9E and S10C). To elucidate the SAR of this new scaffold for selective CCR1 over CCR2 inhibition, we synthesized several analogues of 23 (24–40) and tested them by means of our NanoBRET competition binding assays (Schemes S2 and S3, Table 1, Figures 6F and S11). First, we aimed to examine the impact of the stereochemistry of 23 on CCR1 affinity. As for the structurally related pyrrolone 4, large differences in CCR2 affinity between the eutomer 4-[R] and the distomer 4-[S] were described.[61] […] Furthermore, we identified the 4-hydroxyphenethyl group at position 1 of the pyrrolone scaffold as highly important for CCR1 affinity and selectivity. Its presence seems to block CCR2 binding, also when combined with the structural features of the high-affinity CCR2 ligand 5, as exemplified by 24. Especially the 4-hydroxy group at this moiety is essential for CCR1 binding (see 25 and 26). […] In position 5 of the pyrrolone, several aromatic and aliphatic substituents were tolerated (see 31–35).

The target of assay [7] is T3, CCR9 (Homo sapiens, UniProt P51686).
T3 construct: host or cells: HEK293T, transient
T3 sequence (P51686 1-369): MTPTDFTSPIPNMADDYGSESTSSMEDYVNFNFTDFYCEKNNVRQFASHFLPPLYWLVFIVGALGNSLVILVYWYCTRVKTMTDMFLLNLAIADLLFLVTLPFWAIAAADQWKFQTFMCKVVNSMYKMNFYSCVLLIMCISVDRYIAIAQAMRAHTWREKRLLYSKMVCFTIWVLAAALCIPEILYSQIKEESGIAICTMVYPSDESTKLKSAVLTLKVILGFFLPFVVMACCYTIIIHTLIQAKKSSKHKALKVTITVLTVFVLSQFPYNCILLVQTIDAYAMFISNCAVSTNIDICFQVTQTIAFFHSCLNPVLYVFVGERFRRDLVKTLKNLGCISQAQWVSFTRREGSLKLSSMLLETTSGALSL
The assay is described as follows: NanoBRET-based assay for binding to the IABS of CCR9, as previously reported. As to conditions: compound at 20 μM; read-out: % inh. of tracer binding, CCR9. From the text:
(§1) With 6 (Figure 1), a first lead structure for intracellular CCR1 inhibition that features an approximately 20-fold CCR1 over CCR2 selectivity was previously discovered by Ortiz Zacarías et al.([33]) In order to discover new chemotypes for selective CCR1 over CCR2 inhibition, we aimed to apply our novel NanoBRET competition binding assay for CCR1 in combination with our recently published CCR2 competition binding assay based on 7.[47] In our first attempt, we screened a small in-house library enriched with intracellular GPCR ligands and structural analogues thereof. […] Additionally, we tested 23 for binding to the IABS of CCR9 and CXCR2 using our recently reported NanoBRET-based assay platform (Figure 6C).[44],[45] In the course of these studies, we detected no binding of 23 to CCR9 and CXCR2 up to a concentration of 20 μM. Since cell lineage-dependent effects have been observed for CCR1 antagonists,[59] we studied the CCR1 over CCR2 selectivity of 23 by using a previously reported radioligand binding assay with membrane preparations from osteosarcoma (U2OS) cells stably expressing human CCR1 or CCR2.[33] […] In agreement with these previous reports,[33] we observed a reduction in CCR1 over CCR2 selectivity when moving from membrane-based binding assays to cell-based functional assays. […]

The target in assay [8] is T4, CXCR2 (Homo sapiens, UniProt P25025).
T4 construct: host or cells: HEK293T, transient
T4 sequence (P25025 1-360): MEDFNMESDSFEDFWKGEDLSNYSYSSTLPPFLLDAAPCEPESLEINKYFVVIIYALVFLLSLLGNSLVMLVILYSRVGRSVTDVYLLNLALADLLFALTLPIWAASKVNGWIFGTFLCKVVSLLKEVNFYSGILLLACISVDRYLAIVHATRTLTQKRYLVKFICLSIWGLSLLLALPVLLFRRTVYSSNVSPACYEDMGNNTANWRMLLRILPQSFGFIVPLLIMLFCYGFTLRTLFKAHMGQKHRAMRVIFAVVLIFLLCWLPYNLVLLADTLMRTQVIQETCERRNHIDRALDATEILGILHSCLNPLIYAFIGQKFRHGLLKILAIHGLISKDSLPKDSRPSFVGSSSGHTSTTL
The assay is described as follows: NanoBRET-based assay for binding to the IABS of CXCR2, as previously reported. As to conditions: compound at 20 μM; read-out: % inh. of tracer binding, CXCR2.
From the text: as §1
A general note: Bioluminescence resonance energy transfer reports proximity on the nanometre scale.

The target of assay [9] is T2, CCR1. Nature of the assay: Membrane-based NanoBRET competition assay with 12 (2000 nM) and CCR1_Nluc membranes. In kind it is binding. The arrangement: Promega pNLF1-C (Nluc) #CCR010TN00; host or cells: HEK293T, transient (PEI). Conditions: 12 (2000 nM).
The target in assay [10] is T2, CCR1. The assay is described as follows: Live cell NanoBRET binding assay, HEK293T cells expressing CCR1_Nluc. The arrangement: Promega pNLF1-C (Nluc) #CCR010TN00; host or cells: HEK293T, transient (PEI). As to conditions: 12 (1000 nM), live HEK293T cells; read-out: Ki, live cells.

Molecules are shown by their SMILES. Like-named read-outs stand apart in the source and are kept apart here. A value given as a limit tells only on which side of the number the result lay.

Turning to `O=C(C1=C(O)C(=O)N(c2ccc(Br)cc2F)C1c1cccc(Br)c1)C1CC1` (centres unmarked) [compound 6], the “CCR2, % @ 1 μM” value in assay [1] was 45%. Further, the “CCR1 over CCR2 selectivity” value in [2] was “approximately 20 fold”.

A word on the Kd: it is a measure of binding affinity in units of concentration. As to `CN(C)c1ccc2c(-c3cc(C(=O)NCCOCCOCCn4cc(CNC(=O)c5ccc(Oc6ncc(Cl)cc6NS(=O)(=O)c6ccc(Cl)c(C(F)(F)F)c6)cc5)nn4)ccc3C(=O)[O-])c3ccc(=[N+](C)C)cc-3oc2c1` [compound 7], the Kd was 266 nM in assay [3] and 114 nM in [4]. Moreover, in assay [5], the “KD(CCR1) / binding to CCR1” value was “no relevant binding”.

The term Ki denotes the dissociation constant of the complex between target and ligand, obtained from inhibition or displacement. Regarding `NC(=O)CSc1nnc(-c2ccc(Cl)cc2)n1C1CCCCC1` [compound 43], in assay [6], the inhibition at 100 µM was found to be 29%. The inhibition at 20 µM stood at 15% in assay [7] and 2% in [8]. For the same molecule, the inhibition constant (Ki) in [9] (CCR1_Nluc membranes, read-out: Ki, CCR1 (converted)) was 357 nM; in [10], 1290 nM. Further, in assay [9] (compound at 20 μM), the “% inh. of tracer binding, CCR1” value is given as not below 50%.

The record behind these values is publication PMC11249626, “Fluorophore-Labeled Pyrrolones Targeting the Intracellular Allosteric Binding Site of the Chemokine Receptor CCR1” (ACS Pharmacology & Translational Science, 2024).
